In assay [1] the target is Panx1 hemichannels (Homo sapiens, UniProt Q96RD7). The settings on record: cited from earlier work.
In assay [2] the target is Panx1 hemichannel (Homo sapiens, UniProt Q96RD7). The following applies: cited from earlier work.
Assay [3] concerns Primary peritoneal macrophages. The following applies: reference 49; cited from earlier work.
The subject of assay [4] is macrophage hemichannel activities. The experiment in a line: Lucifer Yellow uptake in LPS-stimulated macrophages. Type of assay: cell-based.
Assay [5] deals with Primary peritoneal macrophages. In words: LPS-induced NO production in primary peritoneal macrophages (Griess reaction). Type of assay: cell-based, murine. The following applies: crude LPS, 16 h. A general note: Nitrite, measured by Griess reagent, commonly stands in for NO production.
Assay [6] concerns the target Cx43 gap junctions (Homo sapiens, UniProt P17302). The settings on record: cited from earlier work.
In assay [7] the test system is PKR. The experiment in a line: LPS-induced PKR expression and phosphorylation (Western blotting). Type of assay: cell-based, murine. The settings on record: crude LPS, 16 h, primary macrophages. (Immunoblotting shows a protein as a band on a membrane.)
Assay [8] deals with Primary peritoneal macrophages. In words: LPS-induced HMGB1 secretion in primary peritoneal macrophages (Western blotting). The settings on record: crude LPS, 16 h, extracellular HMGB1. Type of assay: cell-based, murine. On the procedure:
FIG. 2A-2C. […] AU, arbitrary units. *, P<0.05 versus “+LPS alone.”
Primary murine macrophages and human monocytes were employed to investigate the mechanisms underlying the regulation of HMGB1 secretion by various inflammatory stimuli. Primary peritoneal macrophages were isolated from Balb/C mice (male, 7-8 weeks, 20-25 grams) at 2-3 days after intraperitoneal injection of 2 ml thioglycollate broth (4%, Difco, Detroit, Mich.) as previously described (23,78). Human peripheral blood mononuclear cells (HuPBMCs) were isolated from human blood purchased from the New York (Long Island) Blood Bank (Melville, N.Y.) by density gradient centrifugation through Ficoll (Ficoll-Paque PLUS, Pharmacia, Piscataway, N.J.) as previously described (23,78,79). At 80-90% confluence, macrophage/monocyte cultures will be stimulated with divergent stimuli: ultrapure and crude LPS, CIRP 14, SAA (PeproTech, Cat. No. 300-13) at different concentrations and for various time periods (0, 6, 12, and 18 h). The expression levels of Cx43 or Panx1 hemichannel proteins in macrophage/monocyte cultures are determined by Western blotting or immunocytochemistry techniques as previously described (21,23,80).

The conditions of assay [9]: in vivo; cited from earlier work.
In assay [10] the target is Cx43 hemichannel (Homo sapiens, UniProt P17302). The settings on record: ATP release or dye uptake; cited from earlier work.
Sequence of Cx43 hemichannel (P17302 whole entry, the tested form may be a part): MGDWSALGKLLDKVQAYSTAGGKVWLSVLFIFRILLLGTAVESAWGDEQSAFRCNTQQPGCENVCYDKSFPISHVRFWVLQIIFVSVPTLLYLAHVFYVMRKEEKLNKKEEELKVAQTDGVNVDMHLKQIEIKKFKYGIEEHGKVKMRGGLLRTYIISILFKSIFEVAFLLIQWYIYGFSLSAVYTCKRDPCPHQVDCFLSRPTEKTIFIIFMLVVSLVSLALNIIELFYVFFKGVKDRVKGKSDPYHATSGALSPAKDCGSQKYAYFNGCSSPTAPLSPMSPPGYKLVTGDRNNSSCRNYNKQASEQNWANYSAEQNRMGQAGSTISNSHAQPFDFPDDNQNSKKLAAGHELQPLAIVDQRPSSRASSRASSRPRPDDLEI
Assay [11] concerns connexin 43-gated hemichannel activities. The experiment in a line: Lucifer Yellow dye uptake in LPS-stimulated RAW 264.7 cells. Type of assay: cell-based. The settings on record: LPS 16 h, LY 1 mg/ml 15 min. Here is the method: FIG. 8. […] The Lucifer Yellow dye uptake was used to measure the connexin 43-gated hemichannel activities. […] Subsequently, cell cultures were incubated with Lucifer Yellow (LY, 1 mg/ml) for 15 min, and fixed with 2% paraformaldehyde following three extensive washes with 1× PBS. The number of cells with diffused fluorescent signals was counted under a fluorescence microscope. The cells containing punctuate fluorescent signals were excluded, as the punctuate signals likely resulted from phagocytosis (rather than passive diffusion through Cx43 hemichannels) of the LY dye.
The Lucifer Yellow dye uptake was used to measure the connexin 43-gated hemichannel activities. […] Subsequently, cell cultures were incubated with Lucifer Yellow (LY, 1 mg/ml) for 15 min, and fixed with 2% paraformaldehyde following three extensive washes with 1×PBS. The number of cells with diffused fluorescent signals was counted under a fluorescence microscope. The cells containing punctuate fluorescent signals were excluded, as the punctuate signals likely resulted from phagocytosis (rather than passive diffusion through Cx43 hemichannels) of the LY dye. […] Animal survival was assessed for up to two weeks, and the Kaplan-Meier method was used to compare the differences in mortality rates between groups. […]

For assay [12], the system named is C57BL/6 mice. The experiment in a line: Hepatic ischemia/reperfusion injury, serum ALT and AST. Type of assay: in vivo. The settings on record: 10.0 mg/kg BW via internal jugular vein at beginning of reperfusion; 24 h. On the procedure:
FIG. 10. Intravenous administration of Cx43 peptide antagonist conferred protection against hepatic ischemia/reperfusion (I/R) injury. Male C57BL/6 mice (20-25 g) were subjected to hepatic ischemia/reperfusion by temporally clamping the hepatic artery and portal vein for 60 minutes, which typically produced ischemia in 70% of the liver. At the beginning of the reperfusion, 0.2 ml saline, P5 (ENVCYD; 10.0 mg/kg BW) or P5A (ENVSYD (SEQ ID NO:14); 10.0 mg/kg BW) was injected via the internal jugular vein. At 24 h after the onset of ischemia, animals were euthanized to harvest blood to measure serum levels of hepatic injury markers such as alanine aminotransferase (ALT) and aspartate aminotransferase (AST) using commercial kits.
Intravenous administration of Cx43 peptide antagonist conferred protection against hepatic ischemia/reperfusion (I/R) injury. Male C57BL/6 mice (20-25 g) were subjected to hepatic ischemia/reperfusion by temporally clamping the hepatic artery and portal vein for 60 minutes, which typically produced ischemia in 70% of the liver. At the beginning of the reperfusion, 0.2 ml saline, P5 (ENVCYD, 10.0 mg/kg BW) or P5A (ENVSYD (SEQ ID NO:14), 10.0 mg/kg) was injected via the internal jugular vein. […]

The values that follow come from patent US11083777B2, “Hemichannel extracellular-domain specific agents for treating ischemia-reperfusion injury” (The Feinstein Institutes for Medical Research, priority 2015, dated 2021).

Entries after “also recorded” stand apart in the source; their conditions may differ.

Sequence of Panx1 hemichannels (Q96RD7 whole entry): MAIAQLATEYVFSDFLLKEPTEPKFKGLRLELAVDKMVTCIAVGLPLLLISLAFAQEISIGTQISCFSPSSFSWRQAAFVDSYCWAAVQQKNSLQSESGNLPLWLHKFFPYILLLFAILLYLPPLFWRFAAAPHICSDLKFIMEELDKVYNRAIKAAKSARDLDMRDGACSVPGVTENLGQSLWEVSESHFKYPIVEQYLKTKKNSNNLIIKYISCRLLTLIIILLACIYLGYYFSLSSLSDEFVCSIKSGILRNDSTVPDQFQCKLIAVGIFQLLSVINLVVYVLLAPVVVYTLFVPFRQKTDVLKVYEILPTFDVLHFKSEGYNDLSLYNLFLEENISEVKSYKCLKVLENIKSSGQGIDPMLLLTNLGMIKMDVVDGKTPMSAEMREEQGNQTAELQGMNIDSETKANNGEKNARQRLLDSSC
Sequence of Cx43 gap junctions (P17302 whole entry): as the sequence (P17302 whole entry, the tested form may be a part) above
Sequence of Panx1 hemichannel (Q96RD7 whole entry): as the sequence (Q96RD7 whole entry) above

Consider “10Panx: Panx1-specific mimetic inhibitory peptide, residues 74 to 83 of SEQ ID NO:16 (WRQAAFVDSY; HOMO SAPIENS)”, for which the “P2X7R-induced Panx1 hemichannel activation” value in assay [1] was “selectively attenuate”.

What is called EC50 is the midpoint of the concentration-response curve. Turning to `CC1(C)[C@@H](OC(=O)CCC(=O)O)CC[C@]2(C)[C@H]3C(=O)C=C4[C@@H]5C[C@@](C)(C(=O)O)CC[C@]5(C)CC[C@@]4(C)[C@]3(C)CC[C@@H]12` [CBX, carbenoxolone], in assay [2] (CBX 10 μM, hypoxia, sheer stress, low oxygen tension), the “Panx1 hemichannel-mediated ATP release” value is on record as “effectively inhibited”. The “ATP release from apoptotic cells” value in assay [2] (CBX >100 μM) was “uniformly attenuated”. Further, in assay [3], the “concentrations of CBX used to abrogate LPS-induced HMGB1 secretion in macrophages” value was 5 to 10 µM. Moreover, the “number of LY-positive cells” value in assay [4] (prolonged LPS stimulation, quiescent approximately 2%, LPS alone ~16%) is 6-8%. For the same compound, the EC50 is 1 to 4 µM in [1] and 50 to 100 µM in [6]. Further, the “LPS (endotoxin)-induced NO production” value in assay [5] is listed as “effectively suppressed; also recorded: remarkably inhibited”. Besides, the “LPS-induced elevation of PKR expression and phosphorylation” value in assay [7] is “dose-dependently abrogated; also recorded: significantly attenuated”. For the same compound, in [8], the “LPS-induced HMGB1 secretion” value is “effectively suppressed; also recorded: dose-dependently abrogated; also recorded: remarkably inhibited”.

`CC1(C)[C@@H](O[C@H]2O[C@H](C(=O)O)[C@@H](O)[C@H](O)[C@H]2O[C@@H]2O[C@H](C(=O)O)[C@@H](O)[C@H](O)[C@H]2O)CC[C@]2(C)[C@H]3C(=O)C=C4[C@@H]5C[C@@](C)(C(=O)O)CC[C@]5(C)CC[C@@]4(C)[C@]3(C)CC[C@@H]12` [GZA, glycyrrhizic acid]: in [9], the “benefit in animal models of hepatitis, hepatic ischemia/reperfusion, toxin-induced liver injury, endotoxemia, colitis” value is “proven beneficial”.

With `Nc1ncnc2c1ncn2[C@@H](C=O)O[C@@H](C=O)COP(=O)(O)OP(=O)(O)OP(=O)(O)O` [oATP], the “LPS-induced LY-uptake” value in [4] (data not shown) was “similarly inhibited”. Moreover, in [7], the “LPS-induced elevation of PKR expression and phosphorylation” value is recorded as “significantly attenuated”. The “LPS-induced HMGB1 secretion” value in assay [8] is reported as “similarly inhibited”.

Take `CCCN(CCC)S(=O)(=O)c1ccc(C(=O)O)cc1` [probenecid]: the “specificity for Panx1 (over Cx43)” value in [1] is given as “more specific inhibitor”.

As to “Gap19: mimetic peptide KQIEIKKFK (SEQ ID NO:19), intracellular loop of Cx43 (HOMO SAPIENS)”, the Panx1 channel activity result in assay [1] was “without affecting”. Further, in assay [6], the “Cx43 gap junction communication” value is on record as “without affecting”. Moreover, the Cx43 hemichannel activities entry in [10] was “specifically inhibits”.

With “P5: peptide ENVCYD (SEQ ID NO:1), Cx43 peptide antagonist from extracellular loop 1 (listed as Homo Sapiens)”, the “bacterial endotoxin-induced Lucifer Yellow dye uptake” value in assay [11] is reported as “significantly inhibited”. The “protection against hepatic I/R injury (serum ALT, AST)” value in assay [12] is reported as “significant protection”.
